# Laboratory results reported in patent US10131657B2, “Bromodomain inhibitors” (AbbVie Inc., priority 2013, dated 2018).
# System: breast cancer cell line MX-1
# Assay: MX-1 cell line proliferation assay, Method A
# Assay type: cell-based
# Conditions: Homo sapiens, MX1; MX-1 cells, 96-well, 72 hours, Cell Titer Glo; read-out: Cellular proliferation: EC50 Method A
# In short: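 MX-1 breast cancer cells (5000/well) were attached overnight in RPMI 1640 with 10% FBS, then exposed for 3 days to compound at 0.0001–3 μM final. Cell Titer Glo luminescence was normalized to DMSO controls, and EC50s were obtained by sigmoidal fitting.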
row,EC50,Structure (SMILES)
1,156 nM,"COCCN[C@H]1CC[C@H](Nc2ccc(S(C)(=O)=O)cc2-c2cn(C)c(=O)c3[nH]ccc23)CC1 [Example 111, 4-[2-({trans-4-[(2-methoxyethyl)amino]cyclohexyl}amino)-5-(methylsulfonyl)phenyl]-6-methyl-1,6-dihydro-7H-pyrrolo[2,3-c]pyridin-7-one]"
2,142 nM,"CSCCCN[C@H]1CC[C@H](Nc2ccc(S(C)(=O)=O)cc2-c2cn(C)c(=O)c3[nH]ccc23)CC1 [Example 112, 6-methyl-4-{2-[(trans-4-{[3-(methylsulfanyl)propyl]amino}cyclohexyl)amino]-5-(methylsulfonyl)phenyl}-1,6-dihydro-7H-pyrrolo[2,3-c]pyridin-7-one]"
3,19.5 nM,"Cn1cc(-c2cc(S(C)(=O)=O)ccc2N[C@H]2CC[C@H](NCc3ccc(Cl)cc3)CC2)c2cc[nH]c2c1=O [Example 113, 4-[2-({trans-4-[(4-chlorobenzyl)amino]cyclohexyl}amino)-5-(methylsulfonyl)phenyl]-6-methyl-1,6-dihydro-7H-pyrrolo[2,3-c]pyridin-7-one]"
4,411 nM,"Cn1cc(-c2cc(S(C)(=O)=O)ccc2Oc2ccc(F)cc2F)c2cc(CN3CCN(C4CC4)CC3)[nH]c2c1=O [Example 115, 2-[(4-cyclopropylpiperazin-1-yl)methyl]-4-[2-(2,4-difluorophenoxy)-5-(methylsulfonyl)phenyl]-6-methyl-1,6-dihydro-7H-pyrrolo[2,3-c]pyridin-7-one]"
5,183 nM,"Cn1cc(-c2cc(S(C)(=O)=O)ccc2Oc2ccc(F)cc2F)c2cc(CN3CCN(C4CCOCC4)CC3)[nH]c2c1=O [Example 116, 4-[2-(2,4-difluorophenoxy)-5-(methylsulfonyl)phenyl]-6-methyl-2-{[4-(tetrahydro-2H-pyran-4-yl)piperazin-1-yl]methyl}-1,6-dihydro-7H-pyrrolo[2,3-c]pyridin-7-one]"
6,606 nM,"CN1CCC(N2CCN(Cc3cc4c(-c5cc(S(C)(=O)=O)ccc5Oc5ccc(F)cc5F)cn(C)c(=O)c4[nH]3)CC2)CC1 [Example 125, 4-[2-(2,4-difluorophenoxy)-5-(methylsulfonyl)phenyl]-6-methyl-2-{[4-(1-methylpiperidin-4-yl)piperazin-1-yl]methyl}-1,6-dihydro-7H-pyrrolo[2,3-c]pyridin-7-one]"
7,128 nM,"Cn1cc(-c2cc(S(C)(=O)=O)ccc2Oc2ccc(F)cc2F)c2cc(CN3CCOCC3c3ccco3)[nH]c2c1=O (centres unmarked) [Example 127, 4-[2-(2,4-difluorophenoxy)-5-(methylsulfonyl)phenyl]-2-{[3-(furan-2-yl)morpholin-4-yl]methyl}-6-methyl-1,6-dihydro-7H-pyrrolo[2,3-c]pyridin-7-one]"
8,337 nM,"Cn1cc(-c2cc(S(C)(=O)=O)ccc2Oc2ccc(F)cc2F)c2cc(CN3CCC(N4CCOCC4)CC3)[nH]c2c1=O [Example 130, 4-[2-(2,4-difluorophenoxy)-5-(methylsulfonyl)phenyl]-6-methyl-2-{[4-(morpholin-4-yl)piperidin-1-yl]methyl}-1,6-dihydro-7H-pyrrolo[2,3-c]pyridin-7-one]"

# The next lines start with the molecule.
row,Structure (SMILES),EC50
1,"Cn1cc(-c2cc(S(C)(=O)=O)ccc2Oc2ccc(F)cc2F)c2cc(CN3CCN(c4nccs4)CC3)[nH]c2c1=O [Example 114, 4-[2-(2,4-difluorophenoxy)-5-(methylsulfonyl)phenyl]-6-methyl-2-{[4-(1,3-thiazol-2-yl)piperazin-1-yl]methyl}-1,6-dihydro-7H-pyrrolo[2,3-c]pyridin-7-one]",762 nM
2,"CCS(=O)(=O)c1ccc(Oc2ccc(F)cc2F)c(-c2cn(C)c(=O)c3[nH]c(-c4ccnn4-c4ccccc4)cc23)c1 [Example 117, 4-[2-(2,4-difluorophenoxy)-5-(ethylsulfonyl)phenyl]-6-methyl-2-(1-phenyl-1H-pyrazol-5-yl)-1,6-dihydro-7H-pyrrolo[2,3-c]pyridin-7-one]",249 nM
3,"CCNC(=O)c1cc2c(-c3cc(S(=O)(=O)CC)ccc3Oc3c(C)cccc3NCC3CC3)cn(C)c(=O)c2[nH]1 [Example 119, 4-[2-{2-[(cyclopropylmethyl)amino]-6-methylphenoxy}-5-(ethylsulfonyl)phenyl]-N-ethyl-6-methyl-7-oxo-6,7-dihydro-1H-pyrrolo[2,3-c]pyridine-2-carboxamide]",1510 nM
4,"Cc1cc(C)n(C2CN(Cc3cc4c(-c5cc(S(C)(=O)=O)ccc5Oc5ccc(F)cc5F)cn(C)c(=O)c4[nH]3)C2)n1 [Example 129, 4-[2-(2,4-difluorophenoxy)-5-(methylsulfonyl)phenyl]-2-{[3-(3,5-dimethyl-1H-pyrazol-1-yl)azetidin-1-yl]methyl}-6-methyl-1,6-dihydro-7H-pyrrolo[2,3-c]pyridin-7-one]",249 nM
5,"CCS(=O)(=O)Nc1ccc(Oc2ccc(F)cc2F)c(-c2cn(C)c(=O)c3[nH]c(C#CCOC)cc23)c1 [Example 163, N-{4-(2,4-difluorophenoxy)-3-[2-(3-methoxyprop-1-yn-1-yl)-6-methyl-7-oxo-6,7-dihydro-1H-pyrrolo[2,3-c]pyridin-4-yl]phenyl}ethanesulfonamide]",47.7 nM

# System: breast cancer cell line MX-1
# Assay: MX-1 cell line proliferation assay, Method B
# Assay type: cell-based
# Conditions: Homo sapiens, MX1; MX-1 cells, 384-well, 72 hours, Cell Titer Glo; read-out: Cellular proliferation: EC50 Method B
# Method: The impact of compounds of the Examples on cancer cell proliferation was determined using the breast cancer cell line MX-1 (ATCC) in a 3-day proliferation assay and the data are reported in Table 1.
# MX-1 cells were maintained in RPMI 1640 medium (Sigma) supplemented with 10% FBS at 37° C. and an atmosphere of 5% CO2. For compound testing, MX-1 cells were plated in 384-well white with clear, flat bottom plates at a density of 750 cells/well in 25 μL of culture media and incubated at 370 overnight to allow cell adhesion and spreading. Ten point compound dilution series were prepared in DMSO via a 3-fold serial dilution from either 10 μM or 1 μM stock and added directly to the appropriate wells of the MX-1 cell plate by an ECHO liquid handler (Labcyte). The final compound concentrations in the wells were 10, 3.25, 1, 0.25, 0.124, 0.040, 0.0124, 0.0031, 0.0015 and 0.0005 μM or 1, 0.33, 0.1, 0.025, 0.0124, 0.004, 0.0012, 0.0003, 0.00015, 0.00005 μM, depending on the concentration of the compound stock solution.
# Luminescence readings from the Cell Titer Glo assay were normalized to the DMSO treated cells and analyzed using Accelrys Assay Explorer 3.3 software with sigmoidal curve fitting to obtain EC50s. The minimum significant ratio (MSR) was determined to evaluate assay reproducibility (Eastwood et al., (2006) J Biomol Screen, 11: 253-261). The overall MSR was determined to be 3.3 and a moving MSR (last six run MSR overtime) has averaged 2.1.
row,EC50,Structure (SMILES)
1,827 nM,"Cc1noc(C2CCCN2Cc2cc3c(-c4cc(S(C)(=O)=O)ccc4Oc4ccc(F)cc4F)cn(C)c(=O)c3[nH]2)n1 (centres unmarked) [Example 131, 4-[2-(2,4-difluorophenoxy)-5-(methylsulfonyl)phenyl]-6-methyl-2-{[2-(3-methyl-1,2,4-oxadiazol-5-yl)pyrrolidin-1-yl]methyl}-1,6-dihydro-7H-pyrrolo[2,3-c]pyridin-7-one]"
2,653 nM,"Cn1cc(-c2cc(S(C)(=O)=O)ccc2Oc2ccc(F)cc2F)c2cc(CN3CCN(c4ccccn4)CC3)[nH]c2c1=O [Example 132, 4-[2-(2,4-difluorophenoxy)-5-(methylsulfonyl)phenyl]-6-methyl-2-{[4-(pyridin-2-yl)piperazin-1-yl]methyl}-1,6-dihydro-7H-pyrrolo[2,3-c]pyridin-7-one]"
3,> 1000 nM,"Cc1cccc(C)c1Oc1ccc(S(C)(=O)=O)cc1-c1cn(C)c(=O)c2[nH]c(-c3nc(C4CCCCC4)no3)cc12 [Example 136, 2-(3-cyclohexyl-1,2,4-oxadiazol-5-yl)-4-[2-(2,6-dimethylphenoxy)-5-(methylsulfonyl)phenyl]-6-methyl-1,6-dihydro-7H-pyrrolo[2,3-c]pyridin-7-one]"
4,443 nM,"Cc1cccc(C)c1Oc1ccc(S(C)(=O)=O)cc1-c1cn(C)c(=O)c2[nH]c(-c3nc(C4CCOCC4)no3)cc12 [Example 141, 4-[2-(2,6-dimethylphenoxy)-5-(methylsulfonyl)phenyl]-6-methyl-2-[3-(tetrahydro-2H-pyran-4-yl)-1,2,4-oxadiazol-5-yl]-1,6-dihydro-7H-pyrrolo[2,3-c]pyridin-7-one]"

# The remaining lines, values behind:
row,Structure (SMILES),EC50
1,"CCNC(=O)/C=C/c1cc2c(-c3cc(S(=O)(=O)CC)ccc3Oc3c(C)cccc3C)cn(C)c(=O)c2[nH]1 [Example 134, (2E)-3-{4-[2-(2,6-dimethylphenoxy)-5-(ethylsulfonyl)phenyl]-6-methyl-7-oxo-6,7-dihydro-1H-pyrrolo[2,3-c]pyridin-2-yl}-N-ethylprop-2-enamide]",238 nM
2,"Cc1cccc(C)c1Oc1ccc(S(C)(=O)=O)cc1-c1cn(C)c(=O)c2[nH]c(-c3nc(-c4ccccc4)no3)cc12 [Example 137, 4-[2-(2,6-dimethylphenoxy)-5-(methylsulfonyl)phenyl]-6-methyl-2-(3-phenyl-1,2,4-oxadiazol-5-yl)-1,6-dihydro-7H-pyrrolo[2,3-c]pyridin-7-one]",> 1000 nM
3,"Cc1cccc(C)c1Oc1ccc(S(C)(=O)=O)cc1-c1cn(C)c(=O)c2[nH]c(-c3nc(-c4cccnc4)no3)cc12 [Example 138, 4-[2-(2,6-dimethylphenoxy)-5-(methylsulfonyl)phenyl]-6-methyl-2-[3-(pyridin-3-yl)-1,2,4-oxadiazol-5-yl]-1,6-dihydro-7H-pyrrolo[2,3-c]pyridin-7-one]",465 nM
4,"Cc1cccc(C)c1Oc1ccc(S(C)(=O)=O)cc1-c1cn(C)c(=O)c2[nH]c(-c3nc(-c4ccccn4)no3)cc12 [Example 139, 4-[2-(2,6-dimethylphenoxy)-5-(methylsulfonyl)phenyl]-6-methyl-2-[3-(pyridin-2-yl)-1,2,4-oxadiazol-5-yl]-1,6-dihydro-7H-pyrrolo[2,3-c]pyridin-7-one]",532 nM
5,"Cc1cccc(C)c1Oc1ccc(S(C)(=O)=O)cc1-c1cn(C)c(=O)c2[nH]c(-c3nc(-c4cnccn4)no3)cc12 [Example 140, 4-[2-(2,6-dimethylphenoxy)-5-(methylsulfonyl)phenyl]-6-methyl-2-[3-(pyrazin-2-yl)-1,2,4-oxadiazol-5-yl]-1,6-dihydro-7H-pyrrolo[2,3-c]pyridin-7-one]",491 nM
6,"Cc1cccc(C)c1Oc1ccc(S(C)(=O)=O)cc1-c1cn(C)c(=O)c2[nH]c(-c3nc(-c4cscn4)no3)cc12 [Example 142, 4-[2-(2,6-dimethylphenoxy)-5-(methylsulfonyl)phenyl]-6-methyl-2-[3-(1,3-thiazol-4-yl)-1,2,4-oxadiazol-5-yl]-1,6-dihydro-7H-pyrrolo[2,3-c]pyridin-7-one]",615 nM
